Measurements as given in ChEMBL document CHEMBL5154782, “Discovery of Potent PROTACs Targeting EGFR Mutants through the Optimization of Covalent EGFR Ligands” (J Med Chem, 2022).
The source made the active and inactive calls. The rule behind the calls is not given here.

Tests used:
[1] = tested on: von Hippel-Lindau disease tumor suppressor/Epidermal growth factor receptor (Homo sapiens), P00533+P40337 [L858R,T790M]; test: Protac activity at VHL/EGFR L858R/T790M mutant in human NCI-H1975 cells assessed as induction of EGFR degradation at 100 nM incubated for 24 hrs by Western blot analysis relative to control; format: cell-based
[2] = molecular target: von Hippel-Lindau disease tumor suppressor/Epidermal growth factor receptor (Homo sapiens, UniProt P00533+P40337, L858R/T790M); test: Protac activity at VHL/EGFR L858R/T790M mutant (unknown origin) assessed as inhibition of EGFR incubated for 40 mins in presence of ATP by Kinase Glo luminescence assay; format: protein assay
NCI-H1975 [3] = test: Antiproliferative activity against human NCI-H1975 cells expressing EGFR L858R/T790M mutant assessed as inhibition of cell proliferation incubated for 72 hrs by MTT assay; format: functional, cell-based; details: NCI-H1975, 72 h
HCC827 [4] = test: Antiproliferative activity against human HCC827 cells expressing EGFR deletion19 mutant assessed as inhibition of cell proliferation incubated for 72 hrs by MTT assay; format: functional, cell-based; details: HCC827, 72 h
[5] = tested on: von Hippel-Lindau disease tumor suppressor/Epidermal growth factor receptor (Homo sapiens), P00533+P40337 [L858R,T790M]; test: Protac activity at VHL/EGFR L858R/T790M mutant in human NCI-H1975 cells assessed as induction of EGFR degradation at 1000 nM incubated for 24 hrs by Western blot analysis relative to control; format: cell-based
[6] = tested on: von Hippel-Lindau disease tumor suppressor/Epidermal growth factor receptor (Homo sapiens), P00533+P40337 [L858R,T790M]; test: Protac activity at VHL/[…] cells assessed as induction of EGFR degradation at 100 nM incubated for 24 hrs by Western blot analysis relative to control; format: cell-based
[7] = tested on: von Hippel-Lindau disease tumor suppressor/Epidermal growth factor receptor (Homo sapiens), P00533+P40337 [L858R,T790M]; test: Protac activity at VHL/[…] cells assessed as induction of EGFR degradation at 1000 nM incubated for 24 hrs by Western blot analysis relative to control; format: cell-based
[8] = molecular target: von Hippel-Lindau disease tumor suppressor/Epidermal growth factor receptor (Homo sapiens, UniProt P00533+P40337, L858R); test: Protac activity at VHL/EGFR L858R mutant (unknown origin) assessed as inhibition of EGFR incubated for 40 mins in presence of ATP by Kinase Glo luminescence assay; format: protein assay
A-431 = test: Antiproliferative activity against human A-431 cells expressing EGFR wildtype assessed as inhibition of cell proliferation incubated for 72 hrs by MTT assay; format: functional, cell-based; details: A-431, 72 h
[9] = molecular target: von Hippel-Lindau disease tumor suppressor/Epidermal growth factor receptor (Homo sapiens, UniProt P00533+P40337, T790M/L858R); test: Protac activity at VHL/EGFR L858R/T790M mutant in human NCI-H1975 cells assessed as induction of EGFR degradation; format: cell-based
NCI-H1975 [10] = test: Antiproliferative activity against human NCI-H1975 cells expressing EGFR L858R/T790M mutant assessed as inhibition of cell proliferation; format: functional, cell-based
[11] = molecular target: T1, von Hippel-Lindau disease tumor suppressor/Epidermal growth factor receptor (Homo sapiens, UniProt P00533+P40337); test: Protac activity at VHL/EGFR deletion19 mutant in human PC9 cells assessed as induction of EGFR degradation; format: cell-based; details: pc-9
[12] = molecular target: T1, von Hippel-Lindau disease tumor suppressor/Epidermal growth factor receptor; test: Protac activity at VHL/EGFR deletion19 mutant in human HCC827 cells assessed as induction of EGFR degradation under starvation condition; format: cell-based
BaF3 [13] = test: Antiproliferative activity against mouse BaF3 cells expressing EGFR deletion19/T790M/C797S mutant assessed as reduction on cell growth incubated for 72 hrs by MTT assay; format: toxicity, cell-based; details: BaF3, 72 h
BaF3 [14] = test: Antiproliferative activity against mouse BaF3 cells expressing EGFR L858R/T790M/C797S mutant assessed as reduction on cell growth incubated for 72 hrs by MTT assay; format: toxicity, cell-based; details: BaF3, 72 h
PC-9 = test: Antiproliferative activity against human PC-9 cells expressing EGFR deletion19/T790M/C797S mutant assessed as reduction on cell growth growth incubated for 72 hrs by MTT assay; format: functional, cell-based; details: PC-9, 72 h
NCI-H1975 [15] = test: Antiproliferative activity against human NCI-H1975 cells expressing EGFR L858R/T790M/C797S mutant assessed as reduction on cell growth incubated for 72 hrs by MTT assay; format: functional, cell-based; details: NCI-H1975, 72 h
HCC827 [16] = test: Antiproliferative activity against human […] assessed as inhibition of cell proliferation incubated for 72 hrs by MTT assay; format: functional, cell-based; details: HCC827, 72 h
[17] = tested on: von Hippel-Lindau disease tumor suppressor/Epidermal growth factor receptor (Homo sapiens), P00533+P40337 [L858R,T790M]; test: Protac activity at VHL/EGFR L858R/T790M mutant in human NCI-H1975 cells assessed as induction of EGFR degradation at 10 nM incubated for 24 hrs by Western blot analysis relative to control; format: cell-based
[18] = tested on: von Hippel-Lindau disease tumor suppressor/Epidermal growth factor receptor (Homo sapiens), P00533+P40337 [UNDEFINED MUTATION]; test: Protac activity at VHL/EGFR/deletion19 in human HCC827 cells assessed as induction of EGFR degradation at 3 nM incubated for 24 hrs by Western blot analysis relative to control; format: cell-based
[19] = tested on: von Hippel-Lindau disease tumor suppressor/Epidermal growth factor receptor (Homo sapiens), P00533+P40337 [UNDEFINED MUTATION]; test: Protac activity at VHL/EGFR/deletion19 in human HCC827 cells assessed as induction of EGFR degradation at 30 nM incubated for 24 hrs by Western blot analysis relative to control; format: cell-based
[20] = tested on: von Hippel-Lindau disease tumor suppressor/Epidermal growth factor receptor (Homo sapiens), P00533+P40337 [UNDEFINED MUTATION]; test: Protac activity at VHL/EGFR/deletion19 in human HCC827 cells assessed as induction of EGFR degradation at 1 to 30 nM incubated for 24 hrs by Western blot analysis; format: cell-based; details: dose 1-30 nM

COc1cc(N(C)CCN(C)C)c(NC(=O)/C(C#N)=C/C(C)(C)NC(=O)CCCCCCC(=O)N[C@H](C(=O)N2C[C@H](O)C[C@H]2C(=O)NCc2ccc(-c3scnc3C)cc2)C(C)(C)C)cc1Nc1nccc(-c2cn(C)c3ccccc23)n1
Activity [1]: < 20%
IC50 [2]: 857 nM
IC50 (NCI-H1975 [3]): 2360 nM
IC50 (HCC827 [4]): 544 nM
Activity [5]: < 20%
Activity [6]: < 20%
Activity [7]: 26%

C=CC(=O)N1CCC[C@H](n2c(Nc3ccccc3)nc3cnc(Nc4ccc(N5CCN(C)CC5)cc4)nc32)C1
Activity [1]: < 20%
IC50 [8]: 21 nM
IC50 [2]: 38 nM
IC50 (NCI-H1975 [3]): 12 nM
IC50 (HCC827 [4]): 0.33 nM
IC50 (A-431): 7090 nM

C=CC(=O)Nc1cc2c(Nc3ccc(F)c(Cl)c3)ncnc2cc1OCCCN1CCN(C(=O)CCCCCCNc2cccc3c2C(=O)N(C2CCC(=O)NC2=O)C3=O)CC1 (stereo not drawn)
DC50 [9]: < 30 nM
IC50 (NCI-H1975 [10]): 26.5 nM
DC50 [11]: 100 nM

COc1cc2ncnc(Nc3ccc(F)c(Cl)c3)c2cc1OCCCN1CCN(C(=O)CCCCCCCCCC(=O)N[C@H](C(=O)N2C[C@H](O)C[C@H]2C(=O)NCc2ccc(-c3scnc3C)cc2)C(C)(C)C)CC1
DC50 [12]: 5 nM

COc1cc(N2CCC(N3CCN(C)CC3)CC2)c(C)cc1Nc1ncc(Br)c(Nc2ccc3nccnc3c2P(C)(C)=O)n1
IC50 (BaF3 [13]): 17 nM
IC50 (BaF3 [14]): 21 nM
IC50 (PC-9): 45 nM
IC50 (NCI-H1975 [15]): 910 nM

C=CC(=O)N1CC[C@H](n2c(Nc3ccccc3)nc3cnc(Nc4ccc(N5CCN(CCCCCCC(=O)N[C@H](C(=O)N6C[C@H](O)C[C@H]6C(=O)NCc6ccc(-c7scnc7C)cc6)C(C)(C)C)CC5)cc4)nc32)C1
Activity [1]: 79%
IC50 (HCC827 [16]): 1.86 nM
IC50 (NCI-H1975 [3]): 44 nM
IC50 (HCC827 [4]): 1.66 nM
IC50 (A-431): > 10000 nM
Activity [17]: 38%
Activity [18]: 65%
Activity [19]: 81%

C=CC(=O)Nc1cccc(-n2c(=O)cc(C)c3cnc(Nc4ccc(N5CCN(CCCCCC(=O)N[C@H](C(=O)N6C[C@H](O)C[C@H]6C(=O)NCc6ccc(-c7scnc7C)cc6)C(C)(C)C)CC5)cc4OC)nc32)c1
IC50 (NCI-H1975 [10]): 510 nM

CCC(=O)N1CCC[C@H](n2c(Nc3ccccc3)nc3cnc(Nc4ccc(N5CCN(CCCCCCCC(=O)N[C@H](C(=O)N6C[C@H](O)C[C@H]6C(=O)N[C@@H](C)c6ccc(-c7scnc7C)cc6)C(C)(C)C)CC5)cc4)nc32)C1
IC50 (NCI-H1975 [3]): 2900 nM
IC50 (HCC827 [4]): 5.39 nM
Activity [20]: Active
